{"source": "paper PMC9739180", "about": "“Discovery of a Flavonoid FM04 as a Potent Inhibitor to Reverse P-Glycoprotein-Mediated Drug Resistance in Xenografts and Improve Oral Bioavailability of Paclitaxel” (International Journal of Molecular Sciences, 2022)", "key": {"[1]": {"molecular_target": "T1, MRP1 (Homo sapiens, UniProt P33527)", "T1 construct": "expressed in transfected cells; host or cells: 2008/MRP1 (human ovarian cancer)", "T1 sequence (P33527 whole entry)": "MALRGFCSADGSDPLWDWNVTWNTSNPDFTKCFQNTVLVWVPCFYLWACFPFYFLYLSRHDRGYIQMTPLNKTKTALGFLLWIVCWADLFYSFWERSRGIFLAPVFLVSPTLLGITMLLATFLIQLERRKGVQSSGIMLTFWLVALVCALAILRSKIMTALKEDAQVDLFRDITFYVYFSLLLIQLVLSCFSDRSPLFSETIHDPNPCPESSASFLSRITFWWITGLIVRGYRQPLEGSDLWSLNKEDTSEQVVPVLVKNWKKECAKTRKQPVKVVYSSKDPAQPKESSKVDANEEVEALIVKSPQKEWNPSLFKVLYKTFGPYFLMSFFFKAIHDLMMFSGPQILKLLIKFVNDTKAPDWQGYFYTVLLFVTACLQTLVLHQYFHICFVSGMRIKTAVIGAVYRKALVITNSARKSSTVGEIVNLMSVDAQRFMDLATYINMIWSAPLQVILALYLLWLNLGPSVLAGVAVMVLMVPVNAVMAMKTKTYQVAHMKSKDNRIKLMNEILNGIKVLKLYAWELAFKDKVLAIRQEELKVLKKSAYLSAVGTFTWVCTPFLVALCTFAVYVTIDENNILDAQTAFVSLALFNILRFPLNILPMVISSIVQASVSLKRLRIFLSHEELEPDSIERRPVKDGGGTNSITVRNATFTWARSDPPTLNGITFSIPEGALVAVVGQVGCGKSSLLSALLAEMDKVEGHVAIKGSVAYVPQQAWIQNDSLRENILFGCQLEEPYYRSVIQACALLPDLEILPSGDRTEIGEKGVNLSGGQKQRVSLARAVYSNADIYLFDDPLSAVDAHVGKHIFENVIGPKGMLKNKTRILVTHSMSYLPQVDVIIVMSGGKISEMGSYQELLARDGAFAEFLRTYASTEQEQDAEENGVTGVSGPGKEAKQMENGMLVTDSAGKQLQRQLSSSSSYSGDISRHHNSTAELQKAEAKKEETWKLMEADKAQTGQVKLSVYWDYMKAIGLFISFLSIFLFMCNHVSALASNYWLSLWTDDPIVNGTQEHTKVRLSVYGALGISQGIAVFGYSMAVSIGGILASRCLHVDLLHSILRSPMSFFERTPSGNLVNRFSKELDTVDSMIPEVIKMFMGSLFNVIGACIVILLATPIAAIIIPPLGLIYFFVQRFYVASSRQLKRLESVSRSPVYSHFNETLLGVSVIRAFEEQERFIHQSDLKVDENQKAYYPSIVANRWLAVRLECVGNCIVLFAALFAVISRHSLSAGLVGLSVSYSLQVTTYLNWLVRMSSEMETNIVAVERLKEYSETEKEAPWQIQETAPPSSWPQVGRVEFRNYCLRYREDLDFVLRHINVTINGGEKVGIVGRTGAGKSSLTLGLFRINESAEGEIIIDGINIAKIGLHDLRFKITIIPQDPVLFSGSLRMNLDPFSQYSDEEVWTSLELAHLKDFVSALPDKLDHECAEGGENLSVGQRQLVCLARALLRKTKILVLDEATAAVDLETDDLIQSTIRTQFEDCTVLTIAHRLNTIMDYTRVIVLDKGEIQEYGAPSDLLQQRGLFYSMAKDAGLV", "test": "MRP1-modulating activity in 2008/MRP1 cells (MTS)", "assay_type": "cell-based", "protocol": "The final volume in each well of the 96-well plate was 200 μL. The plate was then incubated for 5 days at 37 °C. The cell viability was determined using an MTS assay as reported previously."}, "[2]": {"test": "Cytotoxicity assay (MTS, 3 days), LCC6MDR", "assay_type": "cell-based, human", "details": "human, LCC6MDR cells", "protocol": "(§1) To each well of 96-well plate, 10,000 cells of LCC6, LCC6MDR or L929 were incubated with different concentrations of FM04 (0, 0.4, 1.2, 3.7, 11, 33 and 100 μM). The final volume in each well of 96-well plate was 100 μL and the plate was incubated for 3 days at 37 °C. The cell viability was determined using MTS assay as reported previously."}, "[3]": {"tested_on": "LCC6MDR", "test": "Cytotoxicity assay (MTS, 3 days), LCC6MDR", "assay_type": "cell-based, human", "details": "at 61 nM to 153 nM", "protocol": "as §1"}, "[4]": {"molecular_target": "T2, CYP2C8 (Homo sapiens, UniProt P10632)", "T2 construct": "tissue Research Institute for Liver Diseases (Shanghai); host or cells: 50-donor pooled human liver microsomes", "T2 sequence (P10632 1-490)": "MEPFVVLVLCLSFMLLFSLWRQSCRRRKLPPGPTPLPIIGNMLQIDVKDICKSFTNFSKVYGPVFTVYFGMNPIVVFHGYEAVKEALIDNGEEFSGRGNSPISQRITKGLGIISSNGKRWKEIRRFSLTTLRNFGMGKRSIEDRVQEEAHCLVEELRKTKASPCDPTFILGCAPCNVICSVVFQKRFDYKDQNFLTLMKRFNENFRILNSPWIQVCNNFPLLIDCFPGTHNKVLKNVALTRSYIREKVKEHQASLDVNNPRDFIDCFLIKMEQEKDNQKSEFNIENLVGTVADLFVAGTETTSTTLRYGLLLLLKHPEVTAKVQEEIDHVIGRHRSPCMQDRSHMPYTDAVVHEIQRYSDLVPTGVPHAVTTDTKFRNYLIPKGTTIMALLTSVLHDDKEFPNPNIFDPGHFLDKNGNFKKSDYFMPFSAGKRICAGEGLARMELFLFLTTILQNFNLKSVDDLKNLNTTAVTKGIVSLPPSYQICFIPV", "test": "PTX metabolism in human liver microsomes: 6α-OHP formation", "assay_type": "in vitro ADME", "details": "HLM", "protocol": "Figure 7 Mechanistic study of FM04 to increase the oral PTX absorption. (A) transepithelial permeability of PTX in Caco-2 transwell assay. When confluent monolayer of Caco2 cells was formed on the transwell, the permeability of PTX (10 μM) was studied with or without FM04 (10 μM). For apical to basolateral transport (A to B), compound was added at the apical side (donor) and samples of the medium collected at the basal side (receiver) at 0, 20, 40, 60, 80, 100 and 120 min and vice versa for basal to apical transport (B to A). The PTX level was determined using UPLC-MS/MS. The relative % of PTX was presented as mean ± standard error of mean. N = 2–3 independent experiments. Impact of FM04 on PTX metabolism. […] After incubation, the levels of PTX, metabolites 6α-hydroxpaclitaxel (6α-OHP) and p3′-hydroxpaclitaxel (p3-OHP) were determined by HPLC-MS/MS. (B) changes in PTX. (C) changes in 6α-OHP. (D) changes in p3-OHP. […]\nDrug solutions of PTX and FM04 were prepared in methanol. […] PTX and PTX metabolites were immediately analyzed by UPLC-MS/MS on the same day.\n[^13C6]-paclitaxel (CAS: 379688-61-6) was the internal standard (IS) and purchased from Alsachim. Fifteen microliters of 10 μg/mL internal standard (IS) was added to all samples and calibration standards for quantification. […] PTX and both metabolites were semi-quantified base on the peak area ratio of the analyte/internal standard."}}, "data": [{"smiles": "O=c1cc(-c2ccc(OCCOCCNCc3ccccc3)cc2)oc2ccccc12", "note": "[FM04, 2-(4-(2-(2-(benzylamino)ethoxy)ethoxy)phenyl)-4H-chromen-4-one]", "values": [{"measurement": "reversal of MRP1-mediated DOX resistance", "setting": "[1]; 1 μM, 2008/MRP1", "result": "did not reverse"}, {"measurement": "RF, DOX in 2008/MRP1", "setting": "[1]; IC50 without modulator / IC50 with 1 µM modulator", "result": 1.2}, {"measurement": "IC50 at 3 days", "setting": "[2]", "result": "5.7 ± 1.5", "unit": "µM"}, {"measurement": "cytotoxicity of FM04 alone towards LCC6MDR cells", "setting": "[3]", "result": "did not exhibit cytotoxicity"}, {"measurement": "decrease of the level of 6α-OHP", "setting": "[4]; FM04 10 μM", "result": 44, "unit": "%"}, {"measurement": "decrease of the level of 6α-OHP", "setting": "[4]; FM04 20 μM", "result": 48, "unit": "%"}]}]}
